Data reported in article doi:10.1101/2023.11.24.568596v1 (biorxiv, 2023).
Each block holds one molecule with its values, some of them ahead of it.

Assays:
Conditions in all cases: binder
TTK = molecular target: T1, TTK (Homo sapiens, UniProt P33981)
T1 sequence (P33981 1-857): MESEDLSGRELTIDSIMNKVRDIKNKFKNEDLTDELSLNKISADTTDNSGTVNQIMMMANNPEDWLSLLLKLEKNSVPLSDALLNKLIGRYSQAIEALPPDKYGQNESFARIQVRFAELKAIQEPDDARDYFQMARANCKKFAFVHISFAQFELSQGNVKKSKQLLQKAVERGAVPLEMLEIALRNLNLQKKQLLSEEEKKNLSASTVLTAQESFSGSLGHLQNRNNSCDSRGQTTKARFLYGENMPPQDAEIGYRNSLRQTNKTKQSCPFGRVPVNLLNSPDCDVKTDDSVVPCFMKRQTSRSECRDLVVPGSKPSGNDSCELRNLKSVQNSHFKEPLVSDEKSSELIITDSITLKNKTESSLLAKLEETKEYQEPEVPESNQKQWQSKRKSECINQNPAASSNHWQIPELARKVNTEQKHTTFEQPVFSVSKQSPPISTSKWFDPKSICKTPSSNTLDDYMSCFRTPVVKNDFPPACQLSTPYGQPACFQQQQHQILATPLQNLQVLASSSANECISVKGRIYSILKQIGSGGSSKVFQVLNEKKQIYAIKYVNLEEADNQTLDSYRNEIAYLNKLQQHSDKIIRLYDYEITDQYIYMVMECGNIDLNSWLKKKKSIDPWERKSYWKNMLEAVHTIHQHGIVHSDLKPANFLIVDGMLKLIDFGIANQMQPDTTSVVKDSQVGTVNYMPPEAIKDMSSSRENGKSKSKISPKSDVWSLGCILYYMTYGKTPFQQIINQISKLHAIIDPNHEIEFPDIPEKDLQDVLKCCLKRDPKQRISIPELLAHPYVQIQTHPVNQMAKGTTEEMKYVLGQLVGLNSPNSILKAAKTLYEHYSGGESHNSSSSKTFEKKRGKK

AAK1 = AAK1 (Homo sapiens, UniProt Q2M2I8)
GPRK5 = GPRK5 (Homo sapiens, UniProt P34947)
DYRK1A = DYRK1A (Homo sapiens, UniProt Q13627)
DMPK1 = molecular target: T2, DMPK1 (Homo sapiens, UniProt Q09013)
T2 sequence (Q09013 1-629): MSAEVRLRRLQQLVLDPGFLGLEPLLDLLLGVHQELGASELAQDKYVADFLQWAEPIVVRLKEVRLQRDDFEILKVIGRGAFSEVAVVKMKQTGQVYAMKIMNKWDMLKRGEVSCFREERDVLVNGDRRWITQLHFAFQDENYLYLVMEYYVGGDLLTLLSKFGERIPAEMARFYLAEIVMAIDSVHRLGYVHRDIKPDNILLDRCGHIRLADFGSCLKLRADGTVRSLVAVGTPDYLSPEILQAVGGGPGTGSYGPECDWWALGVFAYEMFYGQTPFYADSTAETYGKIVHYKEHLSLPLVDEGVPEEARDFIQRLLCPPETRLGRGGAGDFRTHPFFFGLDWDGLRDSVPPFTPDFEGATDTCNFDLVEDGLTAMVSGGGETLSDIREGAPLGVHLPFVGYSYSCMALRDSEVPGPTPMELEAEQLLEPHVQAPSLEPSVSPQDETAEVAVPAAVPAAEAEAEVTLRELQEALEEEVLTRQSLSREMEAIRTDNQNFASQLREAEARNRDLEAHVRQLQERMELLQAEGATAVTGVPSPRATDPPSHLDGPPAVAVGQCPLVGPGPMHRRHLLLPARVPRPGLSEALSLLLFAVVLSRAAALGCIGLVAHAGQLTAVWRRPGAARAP

EphA4 = EphA4 (Homo sapiens, UniProt P54764)
MAP2K4 = molecular target: T3, MAP2K4 (Homo sapiens, UniProt P45985)
T3 sequence (P45985 1-399): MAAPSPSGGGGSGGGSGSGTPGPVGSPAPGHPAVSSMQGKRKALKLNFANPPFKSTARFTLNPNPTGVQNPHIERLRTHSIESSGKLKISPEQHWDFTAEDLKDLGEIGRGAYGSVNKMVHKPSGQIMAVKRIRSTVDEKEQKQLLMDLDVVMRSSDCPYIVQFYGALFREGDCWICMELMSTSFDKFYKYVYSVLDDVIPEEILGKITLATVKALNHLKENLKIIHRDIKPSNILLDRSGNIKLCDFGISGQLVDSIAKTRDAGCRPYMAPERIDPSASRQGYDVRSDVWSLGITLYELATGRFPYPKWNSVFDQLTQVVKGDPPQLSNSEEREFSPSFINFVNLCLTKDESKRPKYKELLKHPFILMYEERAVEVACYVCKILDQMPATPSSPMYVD

SRC = SRC (Homo sapiens, UniProt P12931)
CLK1 = CLK1 (Homo sapiens, UniProt P49759)
SLK = SLK (Homo sapiens, UniProt Q9H2G2)
CaMK2d = CaMK2d (Homo sapiens, UniProt Q13557)
Sequence of CaMK2d (Q13557 whole entry): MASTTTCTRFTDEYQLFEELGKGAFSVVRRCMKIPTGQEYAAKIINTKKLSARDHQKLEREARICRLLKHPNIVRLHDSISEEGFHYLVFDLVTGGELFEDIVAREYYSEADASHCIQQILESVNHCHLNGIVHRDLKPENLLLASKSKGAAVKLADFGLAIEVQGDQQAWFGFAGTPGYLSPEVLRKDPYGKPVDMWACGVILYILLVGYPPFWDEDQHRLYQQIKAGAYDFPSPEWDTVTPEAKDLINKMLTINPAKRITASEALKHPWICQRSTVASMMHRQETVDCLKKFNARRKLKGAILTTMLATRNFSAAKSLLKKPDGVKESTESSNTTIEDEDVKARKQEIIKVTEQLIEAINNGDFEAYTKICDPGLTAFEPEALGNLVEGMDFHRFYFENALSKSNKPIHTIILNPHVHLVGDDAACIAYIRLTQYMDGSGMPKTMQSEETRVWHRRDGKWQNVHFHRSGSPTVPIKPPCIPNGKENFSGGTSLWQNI

Sequence of GPRK5 (P34947 whole entry): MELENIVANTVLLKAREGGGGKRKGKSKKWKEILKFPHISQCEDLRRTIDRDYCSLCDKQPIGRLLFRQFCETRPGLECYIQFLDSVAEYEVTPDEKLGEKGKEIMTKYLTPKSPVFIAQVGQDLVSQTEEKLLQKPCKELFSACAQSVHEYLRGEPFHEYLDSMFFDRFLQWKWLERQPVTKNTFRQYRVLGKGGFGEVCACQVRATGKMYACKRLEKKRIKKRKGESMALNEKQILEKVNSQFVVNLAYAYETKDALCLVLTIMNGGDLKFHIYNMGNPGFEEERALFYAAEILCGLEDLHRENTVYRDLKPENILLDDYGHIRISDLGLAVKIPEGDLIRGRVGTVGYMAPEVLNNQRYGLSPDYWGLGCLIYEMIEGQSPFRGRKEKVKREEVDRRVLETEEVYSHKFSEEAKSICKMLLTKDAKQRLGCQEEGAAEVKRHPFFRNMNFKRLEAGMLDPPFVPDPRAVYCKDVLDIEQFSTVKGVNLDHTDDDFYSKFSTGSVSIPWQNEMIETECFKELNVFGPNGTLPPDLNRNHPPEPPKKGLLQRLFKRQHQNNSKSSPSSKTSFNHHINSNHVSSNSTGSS
Sequence of AAK1 (Q2M2I8 whole entry): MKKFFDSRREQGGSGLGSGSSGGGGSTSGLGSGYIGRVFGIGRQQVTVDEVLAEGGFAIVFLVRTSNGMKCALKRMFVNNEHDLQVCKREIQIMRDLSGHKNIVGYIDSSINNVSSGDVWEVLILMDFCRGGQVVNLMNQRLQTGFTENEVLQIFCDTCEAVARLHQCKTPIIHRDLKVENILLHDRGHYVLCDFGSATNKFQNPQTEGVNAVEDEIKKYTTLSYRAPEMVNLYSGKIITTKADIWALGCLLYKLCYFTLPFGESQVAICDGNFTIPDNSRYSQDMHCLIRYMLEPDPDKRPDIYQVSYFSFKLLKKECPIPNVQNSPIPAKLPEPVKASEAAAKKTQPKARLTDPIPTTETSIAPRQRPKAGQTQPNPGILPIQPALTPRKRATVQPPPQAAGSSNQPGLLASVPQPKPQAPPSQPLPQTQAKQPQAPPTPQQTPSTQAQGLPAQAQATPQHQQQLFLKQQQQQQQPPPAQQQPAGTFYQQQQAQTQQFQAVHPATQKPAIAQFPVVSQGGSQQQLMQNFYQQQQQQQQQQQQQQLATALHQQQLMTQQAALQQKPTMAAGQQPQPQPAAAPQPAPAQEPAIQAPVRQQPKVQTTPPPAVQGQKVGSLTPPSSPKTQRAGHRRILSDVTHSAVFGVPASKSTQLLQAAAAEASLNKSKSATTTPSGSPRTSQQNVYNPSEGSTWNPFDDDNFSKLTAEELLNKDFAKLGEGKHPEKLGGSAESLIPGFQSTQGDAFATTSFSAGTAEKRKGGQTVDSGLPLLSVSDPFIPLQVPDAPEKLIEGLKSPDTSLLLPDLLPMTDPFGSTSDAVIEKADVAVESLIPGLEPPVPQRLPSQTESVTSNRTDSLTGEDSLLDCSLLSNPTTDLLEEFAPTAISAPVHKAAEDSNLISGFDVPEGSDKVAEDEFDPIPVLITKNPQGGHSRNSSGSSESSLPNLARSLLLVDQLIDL
Sequence of SLK (Q9H2G2 whole entry): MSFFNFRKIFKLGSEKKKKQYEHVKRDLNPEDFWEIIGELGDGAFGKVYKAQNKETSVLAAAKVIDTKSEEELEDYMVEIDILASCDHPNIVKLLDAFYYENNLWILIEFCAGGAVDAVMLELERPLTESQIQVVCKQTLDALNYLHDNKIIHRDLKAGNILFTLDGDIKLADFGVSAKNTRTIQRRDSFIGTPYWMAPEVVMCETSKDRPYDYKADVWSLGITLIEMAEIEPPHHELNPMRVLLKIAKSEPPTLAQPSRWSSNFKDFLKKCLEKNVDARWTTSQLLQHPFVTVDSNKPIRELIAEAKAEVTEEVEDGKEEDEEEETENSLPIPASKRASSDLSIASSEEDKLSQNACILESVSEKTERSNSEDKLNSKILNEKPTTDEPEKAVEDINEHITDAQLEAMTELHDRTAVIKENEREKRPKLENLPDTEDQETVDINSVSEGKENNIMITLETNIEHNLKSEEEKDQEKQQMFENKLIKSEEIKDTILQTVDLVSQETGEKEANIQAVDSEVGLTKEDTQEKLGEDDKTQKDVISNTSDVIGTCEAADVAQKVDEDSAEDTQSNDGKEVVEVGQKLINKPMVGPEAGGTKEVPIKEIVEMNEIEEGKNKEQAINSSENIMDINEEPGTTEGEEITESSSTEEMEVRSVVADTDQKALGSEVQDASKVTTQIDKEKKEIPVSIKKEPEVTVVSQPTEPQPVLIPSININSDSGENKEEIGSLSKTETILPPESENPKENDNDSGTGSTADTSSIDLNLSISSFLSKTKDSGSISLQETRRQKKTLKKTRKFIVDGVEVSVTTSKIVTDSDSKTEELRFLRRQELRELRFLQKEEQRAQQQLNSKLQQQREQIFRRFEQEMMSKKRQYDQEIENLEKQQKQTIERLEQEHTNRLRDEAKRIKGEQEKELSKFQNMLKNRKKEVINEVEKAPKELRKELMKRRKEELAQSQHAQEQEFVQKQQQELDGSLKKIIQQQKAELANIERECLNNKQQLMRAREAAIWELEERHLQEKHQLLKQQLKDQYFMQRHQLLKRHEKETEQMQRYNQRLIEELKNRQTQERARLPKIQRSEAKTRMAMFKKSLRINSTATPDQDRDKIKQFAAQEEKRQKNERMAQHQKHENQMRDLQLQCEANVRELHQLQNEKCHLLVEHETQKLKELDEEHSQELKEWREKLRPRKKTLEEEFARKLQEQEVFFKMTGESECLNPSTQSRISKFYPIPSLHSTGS
Sequence of CLK1 (P49759 whole entry): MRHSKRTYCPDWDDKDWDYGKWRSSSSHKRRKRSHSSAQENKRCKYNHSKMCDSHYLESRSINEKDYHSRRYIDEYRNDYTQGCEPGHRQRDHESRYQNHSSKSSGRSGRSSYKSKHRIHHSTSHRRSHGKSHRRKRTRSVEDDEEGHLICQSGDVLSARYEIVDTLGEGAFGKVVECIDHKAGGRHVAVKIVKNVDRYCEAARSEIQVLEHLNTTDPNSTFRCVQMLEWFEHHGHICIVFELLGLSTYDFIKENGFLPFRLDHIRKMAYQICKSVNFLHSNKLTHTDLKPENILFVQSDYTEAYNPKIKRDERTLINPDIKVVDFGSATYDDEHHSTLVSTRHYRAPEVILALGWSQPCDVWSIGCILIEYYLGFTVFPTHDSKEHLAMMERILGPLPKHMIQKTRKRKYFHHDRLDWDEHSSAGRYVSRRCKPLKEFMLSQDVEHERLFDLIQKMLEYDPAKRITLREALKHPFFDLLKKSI
Sequence of SRC (P12931 whole entry): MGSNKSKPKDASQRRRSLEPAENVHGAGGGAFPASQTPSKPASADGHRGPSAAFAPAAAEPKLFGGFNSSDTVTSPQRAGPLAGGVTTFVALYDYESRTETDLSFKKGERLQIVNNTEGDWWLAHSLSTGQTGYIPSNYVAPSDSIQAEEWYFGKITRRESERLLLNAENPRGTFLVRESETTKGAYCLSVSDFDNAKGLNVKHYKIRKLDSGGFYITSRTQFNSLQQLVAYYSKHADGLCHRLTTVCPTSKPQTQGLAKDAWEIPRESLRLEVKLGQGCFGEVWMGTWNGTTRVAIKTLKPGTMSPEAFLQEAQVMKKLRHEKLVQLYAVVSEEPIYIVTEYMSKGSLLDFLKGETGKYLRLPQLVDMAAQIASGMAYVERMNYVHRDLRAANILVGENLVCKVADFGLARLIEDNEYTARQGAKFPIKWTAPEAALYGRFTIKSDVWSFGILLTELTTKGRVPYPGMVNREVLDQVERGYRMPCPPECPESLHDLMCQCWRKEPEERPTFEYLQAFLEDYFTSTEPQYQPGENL

dTm 33 (TTK): 1.3 °C | dTm 33 (AAK1): 4.1 °C | dTm 33 (GPRK5): -0.8 °C | dTm 33 (DYRK1A): -0.6 °C | dTm 33 (DMPK1): -4.7 °C | dTm 33 (EphA4): 3.5 °C | dTm 33 (MAP2K4): 10.0 °C | dTm 33 (SRC): 4.7 °C | dTm 33 (CLK1): -0.2 °C | dTm 33 (SLK): 8.0 °C | dTm 33 (CaMK2d): -0.2 °C
SMILES: Cc1cccc(-c2ccc(-c3cc4cnc(Nc5ccc(F)c(CO)c5)nc4n(CCCCN)c3=O)c(Cl)c2)n1 [compound 33, 8-(4-Aminobutyl)-6-(2-chloro-4-(6-methylpyridin-2-yl)phenyl)-2-((4-fluoro-3-(hydroxymethyl)phenyl)amino)pyrido[2,3-d]pyrimidin-7(8H)-one]

dTm 35 (TTK): 7.8 °C | dTm 35 (AAK1): 3.0 °C | dTm 35 (GPRK5): -2.1 °C | dTm 35 (DYRK1A): -2.3 °C | dTm 35 (DMPK1): -2.1 °C | dTm 35 (EphA4): 2.7 °C | dTm 35 (MAP2K4): 7.6 °C | dTm 35 (SRC): 4.4 °C | dTm 35 (CLK1): -1.6 °C | dTm 35 (SLK): 5.1 °C | dTm 35 (CaMK2d): -0.9 °C
SMILES: COc1cc(N2CCOCC2)ccc1Nc1ncc2cc(-c3ccc(-c4cccc(C)n4)cc3Cl)c(=O)n(CCCCN)c2n1 [compound 35, 8-(4-Aminobutyl)-6-(2-chloro-4-(6-methylpyridin-2-yl)phenyl)-2-((2-methoxy-4-morpholino-phenyl)amino)pyrido[2,3-d]pyrimidin-7(8H)-one]

dTm 36 (TTK): 4.3 °C | dTm 36 (AAK1): 2.4 °C | dTm 36 (GPRK5): -1.3 °C | dTm 36 (DYRK1A): -0.8 °C | dTm 36 (DMPK1): -1.5 °C | dTm 36 (EphA4): 2.4 °C | dTm 36 (MAP2K4): 6.9 °C | dTm 36 (SRC): 4.1 °C | dTm 36 (CLK1): -0.9 °C | dTm 36 (SLK): 4.2 °C | dTm 36 (CaMK2d): -0.2 °C
SMILES: COc1cc(N2CCN(C)CC2)ccc1Nc1ncc2cc(-c3ccc(-c4cccc(C)n4)cc3Cl)c(=O)n(CCCCN)c2n1 [compound 36, 8-(4-Aminobutyl)-6-(2-chloro-4-(6-methylpyridin-2-yl)phenyl)-2-((2-methoxy-4-(4-methylpiperazin-1-yl)phenyl)amino)pyrido[2,3-d]pyrimidin-7(8H)-one]

dTm 34 (TTK): 2.9 °C | dTm 34 (AAK1): 1.4 °C | dTm 34 (GPRK5): -0.7 °C | dTm 34 (DYRK1A): -1.0 °C | dTm 34 (DMPK1): -0.8 °C | dTm 34 (EphA4): 2.5 °C | dTm 34 (MAP2K4): 8.0 °C | dTm 34 (SRC): 3.1 °C | dTm 34 (CLK1): -0.3 °C | dTm 34 (SLK): 4.7 °C | dTm 34 (CaMK2d): -0.2 °C
SMILES: COc1ccc(O)c(Nc2ncc3cc(-c4ccc(-c5cccc(C)n5)cc4Cl)c(=O)n(CCCCN)c3n2)c1 [compound 34, 8-(4-Aminobutyl)-6-(2-chloro-4-(6-methylpyridin-2-yl)phenyl)-2-((2-hydroxy-5-methoxy-phenyl)amino)pyrido[2,3-d]pyrimidin-7(8H)-one]
